From the NIST ThermoML archive (doi:10.1016/j.jct.2017.12.023)
± gives the expanded uncertainty stated by the source.

Experiment: xn = mol fraction of the nth substance listed
Conditions: 100 kPa, Liquid; for viscosity: Concentric cylinders viscometry; for mass density: Vibrating tube method

Molecule CCOS(=O)(=O)[O-].CCn1cc[n+](C)c1 [1-ethyl-3-methylimidazolium ethyl sulfate] + CN1CCCC1=O has a viscosity (313.15 K, x1 = 0.1009) of 2.432 ± 0.027 mPa·s, a viscosity (313.15 K, x1 = 0.2012) of 4.013 ± 0.044 mPa·s and a viscosity (313.15 K, x1 = 0.3021) of 6.231 ± 0.068 mPa·s. For the same molecule, the viscosity (313.15 K, x1 = 0.4012) was 9.114 ± 0.099 mPa·s, the viscosity (313.15 K, x1 = 0.4973) was 12.5 ± 0.14 mPa·s and the viscosity (313.15 K, x1 = 0.596) was 16.76 ± 0.18 mPa·s. The viscosity (313.15 K, x1 = 0.6998) was 22.04 ± 0.24 mPa·s, the viscosity (313.15 K, x1 = 0.7961) was 27.72 ± 0.3 mPa·s and the viscosity (313.15 K, x1 = 0.8821) was 34.42 ± 0.37 mPa·s. It also gave a viscosity (313.15 K, x1 = 1) of 47.26 ± 0.51 mPa·s, a mass density (313.15 K, x1 = 0.1009) of 1058.09 ± 1.5 kg/m3 and a mass density (313.15 K, x1 = 0.2012) of 1091.55 ± 1.5 kg/m3. It also gave a mass density (313.15 K, x1 = 0.3021) of 1119.03 ± 1.5 kg/m3, a mass density (313.15 K, x1 = 0.4012) of 1141.61 ± 1.5 kg/m3 and a mass density (313.15 K, x1 = 0.4973) of 1160.1 ± 1.5 kg/m3. For the same molecule, the mass density (313.15 K, x1 = 0.596) was 1176.69 ± 1.5 kg/m3, the mass density (313.15 K, x1 = 0.6998) was 1191.67 ± 1.5 kg/m3 and the mass density (313.15 K, x1 = 0.7961) was 1204.17 ± 1.5 kg/m3. For the same molecule, the mass density (313.15 K, x1 = 0.8821) was 1214.27 ± 1.6 kg/m3, the mass density (313.15 K, x1 = 1) was 1226.13 ± 1.6 kg/m3 and the viscosity (318.15 K, x1 = 0.1009) was 2.231 ± 0.025 mPa·s. For the same molecule, the viscosity (318.15 K, x1 = 0.2012) was 3.668 ± 0.04 mPa·s, the viscosity (318.15 K, x1 = 0.3021) was 5.615 ± 0.061 mPa·s and the viscosity (318.15 K, x1 = 0.4012) was 8.113 ± 0.088 mPa·s. For the same molecule, the viscosity (318.15 K, x1 = 0.4973) was 11 ± 0.12 mPa·s, the viscosity (318.15 K, x1 = 0.596) was 14.57 ± 0.16 mPa·s and the viscosity (318.15 K, x1 = 0.6998) was 18.93 ± 0.2 mPa·s. It also gave a viscosity (318.15 K, x1 = 0.7961) of 23.58 ± 0.25 mPa·s, a viscosity (318.15 K, x1 = 0.8821) of 29 ± 0.31 mPa·s and a viscosity (318.15 K, x1 = 1) of 39.25 ± 0.42 mPa·s. The mass density (318.15 K, x1 = 0.1009) was 1053.91 ± 1.5 kg/m3, the mass density (318.15 K, x1 = 0.2012) was 1087.53 ± 1.5 kg/m3 and the mass density (318.15 K, x1 = 0.3021) was 1115.14 ± 1.5 kg/m3. For the same molecule, the mass density (318.15 K, x1 = 0.4012) was 1137.84 ± 1.5 kg/m3, the mass density (318.15 K, x1 = 0.4973) was 1156.42 ± 1.5 kg/m3 and the mass density (318.15 K, x1 = 0.596) was 1173.09 ± 1.5 kg/m3. The mass density (318.15 K, x1 = 0.6998) was 1188.15 ± 1.5 kg/m3, the mass density (318.15 K, x1 = 0.7961) was 1200.71 ± 1.5 kg/m3 and the mass density (318.15 K, x1 = 0.8821) was 1210.86 ± 1.5 kg/m3. The mass density (318.15 K, x1 = 1) was 1222.79 ± 1.6 kg/m3, the viscosity (323.15 K, x1 = 0.1009) was 2.061 ± 0.023 mPa·s and the viscosity (323.15 K, x1 = 0.2012) was 3.344 ± 0.037 mPa·s. For the same molecule, the viscosity (323.15 K, x1 = 0.3021) was 5.053 ± 0.055 mPa·s, the viscosity (323.15 K, x1 = 0.4012) was 7.216 ± 0.078 mPa·s and the viscosity (323.15 K, x1 = 0.4973) was 9.678 ± 0.1 mPa·s. The viscosity (323.15 K, x1 = 0.596) was 12.7 ± 0.14 mPa·s, the viscosity (323.15 K, x1 = 0.6998) was 16.34 ± 0.18 mPa·s and the viscosity (323.15 K, x1 = 0.7961) was 20.2 ± 0.22 mPa·s. It also gave a viscosity (323.15 K, x1 = 0.8821) of 24.63 ± 0.27 mPa·s, a viscosity (323.15 K, x1 = 1) of 32.94 ± 0.35 mPa·s and a mass density (323.15 K, x1 = 0.1009) of 1049.74 ± 1.5 kg/m3. It also gave a mass density (323.15 K, x1 = 0.2012) of 1083.52 ± 1.5 kg/m3, a mass density (323.15 K, x1 = 0.3021) of 1111.25 ± 1.5 kg/m3 and a mass density (323.15 K, x1 = 0.4012) of 1134.08 ± 1.5 kg/m3. For the same molecule, the mass density (323.15 K, x1 = 0.4973) was 1152.75 ± 1.5 kg/m3, the mass density (323.15 K, x1 = 0.596) was 1169.51 ± 1.5 kg/m3 and the mass density (323.15 K, x1 = 0.6998) was 1184.64 ± 1.5 kg/m3. For the same molecule, the mass density (323.15 K, x1 = 0.7961) was 1197.26 ± 1.5 kg/m3, the mass density (323.15 K, x1 = 0.8821) was 1207.47 ± 1.5 kg/m3 and the mass density (323.15 K, x1 = 1) was 1219.46 ± 1.6 kg/m3. The viscosity (328.15 K, x1 = 0.1009) was 1.912 ± 0.022 mPa·s, the viscosity (328.15 K, x1 = 0.2012) was 3.064 ± 0.034 mPa·s and the viscosity (328.15 K, x1 = 0.3021) was 4.575 ± 0.05 mPa·s. It also gave a viscosity (328.15 K, x1 = 0.4012) of 6.458 ± 0.07 mPa·s, a viscosity (328.15 K, x1 = 0.4973) of 8.585 ± 0.093 mPa·s and a viscosity (328.15 K, x1 = 0.596) of 11.16 ± 0.12 mPa·s. It also gave a viscosity (328.15 K, x1 = 0.6998) of 14.23 ± 0.15 mPa·s, a viscosity (328.15 K, x1 = 0.7961) of 17.46 ± 0.19 mPa·s and a viscosity (328.15 K, x1 = 0.8821) of 21.14 ± 0.23 mPa·s. The viscosity (328.15 K, x1 = 1) was 27.96 ± 0.3 mPa·s, the mass density (328.15 K, x1 = 0.1009) was 1045.59 ± 1.5 kg/m3 and the mass density (328.15 K, x1 = 0.2012) was 1079.52 ± 1.5 kg/m3. The mass density (328.15 K, x1 = 0.3021) was 1107.38 ± 1.5 kg/m3, the mass density (328.15 K, x1 = 0.4012) was 1130.34 ± 1.5 kg/m3 and the mass density (328.15 K, x1 = 0.4973) was 1149.1 ± 1.5 kg/m3. It also gave a mass density (328.15 K, x1 = 0.596) of 1165.95 ± 1.5 kg/m3, a mass density (328.15 K, x1 = 0.6998) of 1181.15 ± 1.5 kg/m3 and a mass density (328.15 K, x1 = 0.7961) of 1193.83 ± 1.5 kg/m3. It also gave a mass density (328.15 K, x1 = 0.8821) of 1204.1 ± 1.5 kg/m3, a mass density (328.15 K, x1 = 1) of 1216.16 ± 1.6 kg/m3 and a viscosity (333.15 K, x1 = 0.1009) of 1.782 ± 0.02 mPa·s. The viscosity (333.15 K, x1 = 0.2012) was 2.804 ± 0.031 mPa·s, the viscosity (333.15 K, x1 = 0.3021) was 4.154 ± 0.045 mPa·s and the viscosity (333.15 K, x1 = 0.4012) was 5.808 ± 0.063 mPa·s. For the same molecule, the viscosity (333.15 K, x1 = 0.4973) was 7.681 ± 0.083 mPa·s, the viscosity (333.15 K, x1 = 0.596) was 9.893 ± 0.11 mPa·s and the viscosity (333.15 K, x1 = 0.6998) was 12.51 ± 0.14 mPa·s. For the same molecule, the viscosity (333.15 K, x1 = 0.7961) was 15.27 ± 0.16 mPa·s, the viscosity (333.15 K, x1 = 0.8821) was 18.36 ± 0.2 mPa·s and the viscosity (333.15 K, x1 = 1) was 24.09 ± 0.26 mPa·s. For the same molecule, the mass density (333.15 K, x1 = 0.1009) was 1041.42 ± 1.5 kg/m3, the mass density (333.15 K, x1 = 0.2012) was 1075.53 ± 1.5 kg/m3 and the mass density (333.15 K, x1 = 0.3021) was 1103.53 ± 1.5 kg/m3. It also gave a mass density (333.15 K, x1 = 0.4012) of 1126.61 ± 1.5 kg/m3, a mass density (333.15 K, x1 = 0.4973) of 1145.47 ± 1.5 kg/m3 and a mass density (333.15 K, x1 = 0.596) of 1162.4 ± 1.5 kg/m3. The mass density (333.15 K, x1 = 0.6998) was 1177.67 ± 1.5 kg/m3, the mass density (333.15 K, x1 = 0.7961) was 1190.42 ± 1.5 kg/m3 and the mass density (333.15 K, x1 = 0.8821) was 1200.75 ± 1.5 kg/m3. For the same molecule, the mass density (333.15 K, x1 = 1) was 1212.86 ± 1.5 kg/m3.
